Experimental data as given in patent US20250092022A1, “MUSCARINIC RECEPTOR 4 ANTAGONISTS AND METHODS OF USE” (Neurocrine Biosciences, Inc., priority 2021, published 2025).

Target: human M4 receptor (Homo sapiens (Human), UniProt P08173)
Assay: Binding assay: inhibition of radioligand (tritiated N-methylscopolamine) binding to membranes from CHO cells expressing human M4 receptor
Conditions: CHO cell membranes, 1.5 nM tritiated N-methylscopolamine
Description: Binding affinity (Ki) for the compounds was measured by inhibition of radioligand binding to membranes from CHO cells expressing human M4 receptor. Membranes were prepared by nitrogen cavitation and differential centrifugation as previously described (Hoare et al., Mol. Pharmacol. 2003 March; 63(3): 751-65). The radioligand employed was tritiated N-methylscopolamine, used at a concentration of 1.5 nM. A dose-response of twelve concentrations of compound was used, ranging from […]. The assay buffer was 50 mM HEPES, 100 mM NaCl, 5 mM MgCl2, 1 mM ethylenediaminetetraacetic acid, pH-adjusted to pH 7.4. Membranes, radioligand and compound were incubated together for 90 minutes at 37° C., in a total volume of 150 μL in a 96-well plate. Receptor-bound radioligand was then collected by harvesting the assay over glass fiber filters pretreated with polyethylenimine to trap the cell membranes, using rapid vacuum filtration. Harvesting and radioactivity counting was conducted as previously described (see, e.g., Hoare et al., Mol. Pharmacol. 2003 63(3):751-65); Erratum at Mol. Pharmacol. 2005 July; 68(1): 260).

human M4 receptor, sequence (P08173 whole entry): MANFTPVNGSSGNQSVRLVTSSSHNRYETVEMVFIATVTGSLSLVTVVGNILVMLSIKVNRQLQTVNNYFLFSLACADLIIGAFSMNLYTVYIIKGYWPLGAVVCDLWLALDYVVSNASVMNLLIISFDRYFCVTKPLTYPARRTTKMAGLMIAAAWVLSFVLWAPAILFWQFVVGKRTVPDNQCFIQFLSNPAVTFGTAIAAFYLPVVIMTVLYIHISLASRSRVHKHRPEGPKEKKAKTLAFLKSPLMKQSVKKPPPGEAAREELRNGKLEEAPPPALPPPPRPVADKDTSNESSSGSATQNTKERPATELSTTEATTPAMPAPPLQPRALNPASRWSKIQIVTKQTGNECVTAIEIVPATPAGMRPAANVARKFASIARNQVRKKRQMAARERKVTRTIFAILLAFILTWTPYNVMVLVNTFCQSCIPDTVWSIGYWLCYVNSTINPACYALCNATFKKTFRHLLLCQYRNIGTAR

| Ki [nM] | SMILES |
| --- | --- |
| 100 to 500 | CC(C)S(=O)(=O)c1cnc(N2C[C@@H](C)N(C(=O)OC3CC4(C3)CN(Cc3ccccc3)C4)[C@@H](C)C2)nc1 [Compound 42, 2-benzyl-2-azaspiro [3.3]heptan-6-yl (2R,6S)-2,6-dimethyl-4-[5-(propane-2-sulfonyl)pyrimidin-2-yl]piperazine-1-carboxylate] |
| ≥ 500 | COc1cnc(N2C[C@@H](C)N(C(=O)OC3CC4(C3)CN(Cc3ccccc3)C4)[C@@H](C)C2)nc1 [Compound 45, 2-benzyl-2-azaspiro [3.3]heptan-2-yl (2R,6S)-4-(5-methoxypyrimidin-2-yl)-2,6-dimethyl-piperazine-1-carboxylate] |
| < 100 | COc1ccc(CN2CC3(CC(OC(=O)N4[C@H](C)CN(c5ncc(S(C)(=O)=O)cn5)C[C@@H]4C)C3)C2)cc1 [Compound 60, 2-[(4-methoxyphenyl)methyl]-2-azaspiro[3.3] heptan-6-yl (2R,6S)-4-(5-methanesulfonylpyrimidin-2-yl)-2,6-dimethyl-piperazine-1-carboxylate] |
| ≥ 500 | Cc1ccc(CN2CC3(CC(OC(=O)N4[C@H](C)CN(c5ncc(S(C)(=O)=O)cn5)C[C@@H]4C)C3)C2)cc1 [Compound 61, 2-[(4-methylphenyl)methyl]-2-azaspiro[3.3] heptan-6-yl (2R,6S)-4-(5-methanesulfonylpyrimidin-2-yl)-2,6-dimethyl-piperazine-1-carboxylate] |
| ≥ 500 | COc1ccccc1CN1CC2(CC(OC(=O)N3[C@H](C)CN(c4ncc(S(C)(=O)=O)cn4)C[C@@H]3C)C2)C1 [Compound 62, 2-[(2-methoxyphenyl)methyl]-2-azaspiro[3.3] heptan-6-yl (2R,6S)-4-(5-methanesulfonylpyrimidin-2-yl)-2,6-dimethyl-piperazine-1-carboxylate] |

Further lines, the molecule ahead of its results:

| SMILES | Ki [nM] |
| --- | --- |
| C[C@@H]1CN(c2ncc3c(n2)CS(=O)(=O)C3)C[C@H](C)N1C(=O)OC1CC2(C1)CN(Cc1ccccc1)C2 [Compound 43, 2-benzyl-2-azaspiro [3.3]heptan-6-yl (2R,6S)-4-dioxo-5H,7H-6λ^6-thieno [3,4-d]pyrimidin-2-yl}-2,6-dimethylpiperazine-1-carboxylate] | < 100 |
| C[C@@H]1CN(c2ncc(OC3CC3)cn2)C[C@H](C)N1C(=O)OC1CC2(C1)CN(Cc1ccccc1)C2 [Compound 46, 2-benzyl-2-azaspiro [3.3]heptan-6-yl (2R,6S)-4-(5-cyclopropoxy-pyrimidin-2-yl)-2,6-dimethylpiperazine-1-carboxylate] | ≥ 500 |
| C[C@@H]1CN(c2ncc(O)cn2)C[C@H](C)N1C(=O)OC1CC2(C1)CN(Cc1ccccc1)C2 [Compound 51, 2-benzyl-2-azaspiro [3.3]heptan-6-yl (2R,6S)-4-(5-hydroxypyrimidin-2-yl)-2,6-dimethyl-piperazine-1-carboxylate] | ≥ 500 |
| C[C@@H]1CN(c2ncc(OCC(O)CF)cn2)C[C@H](C)N1C(=O)OC1CC2(C1)CN(Cc1ccccc1)C2 (stereo partly drawn) [Compound 53, 2-benzyl-2-azaspiro [3.3]heptan-6-yl (2R,6S)-4-[5-(3-fluoro-2-hydroxypropoxy)pyrimidin-2-yl]-2,6-dimethyl-piperazine-1-carboxylate] | ≥ 500 |
| C[C@@H]1CN(c2ncc(OCC(O)C(F)F)cn2)C[C@H](C)N1C(=O)OC1CC2(C1)CN(Cc1ccccc1)C2 (stereo partly drawn) [Compound 54, 2-benzyl-2-azaspiro [3.3]heptan-6-yl (2R,6S)-4-[5-(3,3-difluoro-2-hydroxypropoxy)pyrimidin-2-yl]-2,6-dimethylpiperazine-1-carboxylate] | 100 to 500 |
| C[C@H](O)COc1cnc(N2C[C@@H](C)N(C(=O)OC3CC4(C3)CN(Cc3ccccc3)C4)[C@@H](C)C2)nc1 [Compound 55, 2-benzyl-2-azaspiro [3.3]heptan-6-yl (2R,6S)-4-{5-[(2S)-2-hydroxypropoxy]pyrimidin-2-yl}-2,6-dimethylpiperazine-1-carboxylate] | ≥ 500 |
| C[C@@H]1CN(c2ncc(OC[C@@H](C)O)cn2)C[C@H](C)N1C(=O)OC1CC2(C1)CN(Cc1ccccc1)C2 [Compound 56, 2-benzyl-2-azaspiro [3.3]heptan-6-yl (2R,6S)-4-{5-[(2R)-2-hydroxypropoxy]pyrimidin-2-yl}-2,6-dimethyl-piperazine-1-carboxylate] | 100 to 500 |
| CC[C@H](O)COc1cnc(N2C[C@@H](C)N(C(=O)OC3CC4(C3)CN(Cc3ccccc3)C4)[C@@H](C)C2)nc1 [Compound 57, 2-benzyl-2-azaspiro [3.3]heptan-6-yl (2R,6S)-4-{5-[(2S)-2-hydroxybutoxy]pyrimidin-2-yl}-2,6-dimethyl-piperazine-1-carboxylate] | 100 to 500 |
| CC[C@@H](O)COc1cnc(N2C[C@@H](C)N(C(=O)OC3CC4(C3)CN(Cc3ccccc3)C4)[C@@H](C)C2)nc1 [Compound 58, 2-benzyl-2-azaspiro [3.3]heptan-6-yl (2R,6S)-4-{5-[(2R)-2-hydroxybutoxy]pyrimidin-2-yl}-2,6-dimethyl-piperazine-1-carboxylate] | 100 to 500 |
| C[C@@H]1CN(c2ncc(OCC(C)(C)O)cn2)C[C@H](C)N1C(=O)OC1CC2(C1)CN(Cc1ccccc1)C2 [Compound 59, 2-benzyl-2-azaspiro [3.3]heptan-6-yl (2R,6S)-4-[5-(2-hydroxy-2-methylpropoxy)pyrimidin-2-yl]-2,6-dimethyl-piperazine-1-carboxylate] | 100 to 500 |
